Row | melting point [°C] | SMILES
1 | 116 to 118 | CC(=O)Oc1c(Cl)c(C(C)(C)C)oc(=O)c1-c1c(C)cc(C)cc1C
2 | 214 to 215 | COc1cc(-n2cnc3cc(-c4ccc(Cl)cc4)sc3c2=O)ccc1OCCN1CCCC1
3 | 156 to 158 | CCOC(C[C@@H](CO)Cn1cnc2c(Cl)nc(N)nc21)OCC
4 | 225 to 232 | O=C1CCSc2c(O)cccc21
5 | 101 to 103 | Cc1cc(O)c(C)c(C)c1OCc1ccccc1
6 | 149 to 150 | BrCc1ccc2ccccc2c1CBr
7 | 204 | CCN(CC)C(=O)Nc1ccc(S(=O)(=O)N2C(=O)C(N[C@@H](C)C(=O)OC)(c3ccccc3Cl)c3cc(Cl)ccc32)cc1 (stereo not given in full)
8 | 89 | O=c1c2ccc(Cl)cc2sn1CCCCl
9 | 113 to 115 | CC12C=CCC1C1CCC3CC(O)CCC3C1CC2 (stereo not given)
10 | 228 to 229 | O=C1C(O)=C(O)C(=O)c2cc(Cl)ccc21
11 | 118 to 121 | C#CCN1N=C(c2ccc(OC)c(OC)c2)[C@@H]2CCCC[C@@H]2C1=O (relative stereo)
12 | 170 to 172 | CCC(C(=O)N(C)C)C(C#N)(c1ccccc1)c1ccccc1 (stereo not given)
13 | 72 | C#CCOc1cc(Oc2ccc(OC)cc2)ncn1
14 | 144 to 146 | O=C(O)C(Cc1cccc2c1CCCC2)Cc1cccc2c1CCCC2
15 | 174 to 175 | CN1CCC(Oc2ccc(N)cc2)(c2ccccc2)CC1
16 | 203 to 205 | CN(C)C1CCn2c1nc1cc(NC(=O)c3cc4cc(C(F)(F)F)ccc4n3Cc3cccc(F)c3)cnc12 (single isomer, unassigned; (-))
17 | 113 to 116 | CCN(CC)OC(=Nc1c(C(C)C)cccc1C(C)C)Nc1c(C(C)C)cccc1C(C)C
18 | 164 to 166 | CCCc1nc2c(N)nc3ccccc3c2n1OCc1ccccc1
19 | 170 to 172 | Cn1ccnc1C=NO
20 | 65 to 70 | CN(CCO)CC1(SSC2(CN(C)CCO)CCCCC2)CCCCC1
21 | 183 to 185 | N#Cc1cc2cc(C(O)(C(F)(F)F)C(F)(F)F)ccc2[nH]1
22 | 215 to 218 | O=C(O)c1ccccc1N1CCN(CC(O)COc2cccc3ccccc23)CC1 (stereo not given)
23 | 170 to 172 | CC(C)(C)C1NN(c2ccc(N)cc2Br)C(=O)O1 (stereo not given)
24 | 119 to 120 | CCn1c2ccc(C=NNc3ccccc3)cc2c2cc(C=NNc3ccccc3)ccc21

Row | melting point [°C] | SMILES
25 | 194 to 196 | CNC(=O)N1CCC(=C2c3ccc(Cl)cc3CCc3cccnc32)CC1
26 | 228 | COc1cc2c(cc1OC)-c1c(C#N)sc(=S)n1CC2
27 | > 210 | CC1(C)COC(=O)N1c1nc(-c2cccc([N+](=O)[O-])c2)cs1
28 | 107 to 112 | COCc1c(C=NO)nc(Oc2nccc3ccccc23)c2[nH]c3ccccc3c12
29 | 165 to 166 | CC1(C)CCC(C)(C)c2cc(C(O)CNc3ccc(C(=O)O)c(O)c3)ccc21 (stereo not given)
30 | 120 to 123 | C[Si](C)(C)C#Cc1c(C(F)(F)F)nn(-c2c(Cl)cc(C(F)(F)F)cc2Cl)c1N
31 | 182 to 185 | Cc1nnnn1-c1ccc(/C(=C\C2CCCC2)C(=O)O)cc1F
32 | 238 | Cc1cc(-c2ccc(C(F)(F)F)cc2)nc(-c2ccnc(-c3cccc(S(N)(=O)=O)c3)c2)c1
33 | 95 to 95.5 | CC(C)[C@@H]1C[C@@H]([C@H](Br)CC2CCCCC2)OC1=O
34 | 108 to 110 | Cc1c(NC(=O)CC(C)(C)C)cc2c(c1C)OC(C)(C)C2(O)c1ccco1 (stereo not given)
35 | 28 to 31 | CCCCCCCCC/C=C(\C)C(=O)O
36 | 223 to 226 | COC1CCCC2=C(O)C3=C(C(=O)c4ccc(C(C)=O)cc4C3)C(O)C21 (stereo not given)
37 | 272 to 273 | CO/C=C1/C(=O)NC(=O)c2ccc(-n3cccc3)cc21
38 | 249 to 251 | COc1cc2nc(N3CCc4c(cccc4C(=N)N4CCOCC4)C3)[nH]c(=O)c2cc1OC
39 | 166 | CC(=O)Nc1ccc(NCCOS(C)(=O)=O)c([N+](=O)[O-])c1
40 | 149 to 151 | Nc1cn(-c2cncc(F)c2)nc1Cl
41 | 178 to 181 | Cc1noc(NS(=O)(=O)c2c(Cc3ccc4c(c3)OCO4)sc3ccccc23)c1Cl
42 | 166 to 167 | NC(=O)c1cccc(-c2c(F)ccc3cc(Cc4cccc(C(F)(F)F)c4)sc23)c1
43 | 60.5 | CCOC(=O)Cc1cc(F)ccc1-c1ccccc1
44 | 99 | O=[N+]([O-])c1ccc(CCN2CCN(c3nsc4ccccc34)CC2)cc1
45 | 142 to 145 | COCCNC(=O)COc1ccc(C(=O)CN2CCN(c3ccncc3)CC2)cc1
46 | 149 to 150 | COc1nc(C(F)(F)F)cc(=O)n1-c1cc(OCCON=C(C)C)c(Br)cc1F
47 | 116 to 117 | C(=C1c2ccccc2-c2ccccc21)c1nc(COc2ccc(CCCn3ccnc3)cc2)co1
48 | 50 to 80 | CS(=O)(=O)c1ccc(-c2cnn(-c3cccc(Cl)c3)c(=O)c2COc2ccc(F)cc2)cc1

Row | melting point [°C] | SMILES
49 | 140 to 143 | COC(=O)c1cc(-c2ccc3cc4c(cc3c2)C(C)(C)CCC4(C)C)c[nH]1
50 | 119 to 123 | Cn1c2c(c3ccccc31)SCCC2(C)C=O (stereo not given)
51 | 145 to 146 | CN=C(SCc1ccc(OC)cc1)C1(c2cccnc2)CCCCC1CCO (stereo not given)
52 | 165 to 166 | Cc1ccc(C(=O)[C@H]2C[C@H]2C(=O)O)cc1 (relative stereo)
53 | 160 to 162 | CC1=CCc2c1sc1c2CN(c2ccccc2Cl)CC2N(C(=O)O)CCN12 (stereo not given)
54 | 56 | CCCCCCCCCCCC(=O)Oc1c(C(=O)c2ccc(Cl)cc2Cl)c(C)nn1C
55 | 159 to 160 | Cn1nnnc1C(CBr)=C(c1ccc(F)cc1)c1ccc(F)cc1
56 | 196 to 197 | Cc1nc(-c2ccc(-c3cscn3)cc2)c(-c2ccc(S(C)(=O)=O)c(F)c2)o1
57 | 258 to 260 | O=C(O)c1ccc2c(c1)CCc1c(Cl)cccc1C2=O
58 | 53 to 55 | CCOC(=O)/C(C)=C/CC[C@@H](C)[C@H]1CC[C@@]2(C)C3=CCC4C(C)(C)C(=O)CC[C@]4(C)C3=CC[C@]12C (stereo not given in full)
59 | 168 to 172 | COC(=O)c1c[nH]c(-c2ccc(OC[C@@H](O)CNC(C)(C)C)cc2)n1
60 | 194 | COc1ccc(Br)c(C(=O)N2CCN(S(=O)(=O)c3ccc(F)cc3F)CC2)c1
61 | 180 to 182 | COc1ccc(C2=NN(C3CCN(CC(N)=O)CC3)C(=O)CC2)cc1OC
62 | 73 to 81 | CCOC(=O)C=C(C)Nc1ccccc1N
63 | > 260 | O=C1COCC2=C1C(c1ccc(F)c(I)c1)C1=C(CCS1)N2 (stereo not given)
64 | 218 to 219 | CCOC(=O)c1ccc(CC(=O)Nc2csc3nc(C(=O)NCc4cccc(OC)c4)[nH]c(=O)c23)cc1
65 | 133 to 135 | CN1CCC(O)(c2cc(F)c(Br)cc2F)CC1
66 | 201 to 203 | N=C(N)NC(=O)Cn1c(C(=O)c2ccccc2)ccc1-c1ccccc1
67 | 130 to 132 | CCCCOC(=O)c1cc(OCc2ccccc2)c2c(Cl)cc(Cl)cc2n1
68 | 42 to 46 | COc1ccc(C2=NN(Cc3ccc(OCCCCBr)cc3)C(=O)[C@@H]3CC=CC[C@H]23)cc1OC
69 | 130 to 135 | COc1ccccc1NC(=O)Nc1ccc2c(c1)CCN(C(=O)Nc1ccc(OCCO)cc1Cl)C2
70 | 99 to 101 | CCOP(=O)(CNCc1cccnc1-c1cc(OC)c(O)c(OC)c1)OCC
71 | 132 to 134 | O=C1N(Cc2ccncc2)Cc2cccnc2N1c1cccc(Cl)c1
72 | 105 to 107 | O=S(=O)(c1ccc(Cl)cc1)C(Cc1ccccn1)c1cc(F)ccc1F (stereo not given)

Row | melting point [°C] | SMILES
73 | 112 to 113 | Cc1ccccc1OCCCc1sc(-n2ccnc2C)nc1-c1ccc(Cl)cc1
74 | 127 to 128 | CS(=O)(=O)c1ccc(-c2oc(C3CCCCC3)nc2-c2ccc(F)cc2)cc1
75 | 134 to 135 | CC(=O)NCCC1CCc2ccn3nc(C)c(C)c3c21 (stereo not given)
76 | 91 to 92 | Cc1c([N+](=O)[O-])cnn1-c1c(Cl)cc(C(F)(F)F)cc1Cl
77 | 186 to 190 | O=C(C(=Cc1ccccc1)c1ccccc1)c1ccc(O)cc1
78 | 235 to 240 | CN(C)CC(C)(C)Oc1cnc(Nc2cc(-c3cccc(-n4ncc5cc(C(C)(C)C)cc(F)c5c4=O)c3CO)nn(C)c2=O)cn1
79 | 286 | O=C(Nc1cc(NC(=O)C2CCCCC2)cc(NC(=O)C2CCCCC2)c1)C1CCCCC1
80 | 58 to 59 | COC(=O)Cc1cn(Cc2ccc(OCc3ccccc3)cc2)nc1-c1ccc(F)cc1
81 | 223 to 225 | CC(=O)c1cc2c(s1)C(=O)c1ccsc1C2=O
82 | 203 | CCOc1ccc2[nH]c(=O)n(C3CCCCC3)c2c1
83 | 96 to 97 | CCOC(=O)c1cccc(-c2nc(-c3ccc(C(C)(C)C)cc3)cs2)c1
84 | 140 to 143 | CC1CCN(c2cc(F)cc(C(=O)Nc3ccc(OCc4n[nH]c(=O)n4-c4ccccc4)c4ccccc34)c2)CC1
85 | 137 to 138 | O=C(Nc1ccc(F)c(CBr)c1)c1ccccn1
86 | 104 to 107 | COc1cc2c(cc1C)C(=O)CCC2
87 | 148 to 149 | CCC(O)c1ccc(Cc2c(Cl)cc(N3N=CCNC3=O)cc2Cl)cc1 (stereo not given)
88 | 199 to 202 | COc1ccc(CC(NC(c2ccccc2)c2ccccc2)P(O)O)cc1 (stereo not given)
89 | 198 to 200 | Cn1ncnc1COc1nn2c(-c3ccccc3F)nnc2cc1C12CCC(C1)C2
90 | 124 to 127 | C=Cc1ccc(C2=CC(=O)NC2=O)cc1
91 | 105 to 106 | C=CCNC(=O)c1ccccc1I
92 | 87 to 88 | CCCCCCCCCCCCCCCCCC(=O)N[C@H]1CCCNC(=O)C1
93 | 193 | CSc1ccc(C=CC(N)=O)cc1
94 | 177 to 179 | Cc1c(CC(=O)O)c2cc(O)ccc2n1C(=O)c1ccc(Cl)c(Cl)c1
95 | 167 to 170 | O=Cc1c2ccccc2c(Cl)c2c(Cl)cccc12
96 | 148 to 150 | CC(=CC(=O)NCc1cccc(CNC(=O)C=C(C)C(=O)O)c1)C(=O)O

Row | SMILES | melting point [°C]
97 | CC1CNCCC1n1c(=O)[nH]c2cc(Cl)ccc21 (stereo not given) | 199
98 | COC(=O)c1ccc(OCCF)cc1 | 77
99 | Cc1cccc2c1NC(=O)C(NC(=O)OCc1ccccc1)N=C2c1ccccc1F (racemic) | 222 to 225
100 | CN(C)c1c(Cl)cc(C(O)CNC(C)(C)C)cc1Cl (stereo not given) | 96 to 99

Reference: a melting point compilation (Tetko et al.; mined from patent text by program, amines drawn as free bases though some values may be those of a salt)
